The text below walks through data of patent publication EP0457381B1, “Delta 2-cephem sulphones” (PHARMACIA S.p.A., priority 1990, dated 1991).

The target in the experiment is T1, human leukocyte elastase (HLE) (Homo sapiens, UniProt P08246).
T1 construct: purchased Calbiochem
T1 sequence (P08246 30-267): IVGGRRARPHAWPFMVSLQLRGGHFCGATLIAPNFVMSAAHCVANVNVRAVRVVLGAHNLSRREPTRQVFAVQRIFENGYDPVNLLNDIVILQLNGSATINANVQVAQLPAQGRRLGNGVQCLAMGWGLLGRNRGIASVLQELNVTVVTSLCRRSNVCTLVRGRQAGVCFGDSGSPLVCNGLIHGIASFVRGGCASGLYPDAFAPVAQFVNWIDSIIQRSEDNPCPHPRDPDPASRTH
Nature of the experiment: Kinetic parameters of HLE inhibition, fluorogenic substrate N-methoxysuccinyl-alanyl-alanyl-prolyl-valyl-7-amido-4-methylcoumarin. Type of experiment: biochemical. Particulars: HLE (Calbiochem), 37°C, phosphate buffer pH 7.4, I= 0.15, 1% DMSO and 1% MeCN; for Ki: apparent dissociation constant of HLE-inhibitor complex at steady state; for k₅/Ki: rate of formation of HLE-inhibitor complex. From the text: The inhibitory activity on human leukocyte elastase (HLE) of Δ-cephem sulphones of the invention, designated as Compound 4 and Compound 5 in Table 1 above, and of the Δ³-cephem sulphone Merck S.&D. L-659,286, which, to our best knowledge, is the most advanced β-lactam product under study as an HLE-inhibitor (Ann. Rev. Resp. Dis. 1988, 137:204; Journal of Cellular Biochemistry 1989, 39:47), was compared as described below.
The reference compound 7α-methoxy-3-(2-methyl-5-oxo-6-hydroxy-2,5-dihydro-1,2,4-triazin-3-yl)thiomethyl-3-cephem-4-pyrrolidine-carboxamide-1,1-dioxide (Merck's code-name; L-659,286) was synthesized in our laboratories from 7-amino-3-desacetoxy-cephalosporanic acid. Its structural identity and purity (≥95%) was confirmed by spectral and analytical data.
The kinetic parameters of HLE (Calbiochem) inhibition were determined at 37°C in phosphate buffer (pH 7.4, I= 0.15) with 1% DMSO and 1% MeCN as solubilizing vehicles, monitoring fluorometrically (λex= 383 nm; λem = 455 nm) the release of 7-amino-4-methylcoumarin from the fluorogenic substrate N-methoxysuccinyl-alanyl-alanyl-prolyl-valyl-7-amido-4-methylcoumarin. Best fit to the progress curves was obtained by a two-step mechanism (mechanism B in J.F. Morrison, TIBS 1982, 7:102; see also J.F. Morrison and C.T. Walsh, Advances in Enzymology, vol. 61, A. Meister editor, John Wiley & Sons 1988): [drawing 9] Product release versus time was analysed using the following function: [P] = vs t + (vi -vs (1-e)^-kt )/k [formula] wherein [P] = product concentration, vs = steady state rate, vi = initial rate of product release and k = k6 + (k5 /Ki )([I])/(1 + [S]/Km + [I]/Ki); Ki = k4 /k3 [formula] wherein [I] and [S] = inhibitor and substrate concentration, and Km = Michaelis constant for the enzymesubstrate pair (independently determined under the same experimental conditions). At steady state, inhibition is fully determined by the steady-state inhibition constant Ki* (steady state): Ki * = Ki (k6)/(k5 + k6) [formula]

Turning to `CO[C@H]1C(=O)N2C(C(=O)N3CCCC3)=C(CSc3nc(=O)c(O)nn3C)CS(=O)(=O)[C@H]12` [Reference compound, 7α-methoxy-3-(2-methyl-5-oxo-6-hydroxy-2,5-dihydro-1,2,4-triazin-3-yl)thiomethyl-3-cephem-4-pyrrolidine-carboxamide-1,1-dioxide, reference compound], the Ki came to 140 nM and the k₅/Ki entry is given as “k₅/Ki = 8,000 M⁻¹s⁻¹”.

As for `COC(=O)C1(C=CC(=O)OC(C)(C)C)C(C)=C(/C=C/C(=O)OC(C)(C)C)S(=O)(=O)[C@@H]2[C@@H](Cl)C(=O)N21` (stereo partly drawn) [Compound 5, Methyl-7α-Chloro-2,4-bis[2-tert-butoxycarbonylethenyl]-3-methyl-2-cephem-4-carboxylate-1,1-dioxide], the Ki came out at 5.2 nM.

For `COC(=O)C1(/C=C\C(=O)OC(C)(C)C)C(C)=CS(=O)(=O)[C@@H]2[C@@H](Cl)C(=O)N21` (stereo partly drawn) [Compound 4, Methyl 7α-chloro-4-[(Z)-2-tert-butoxycarbonylethenyl]-3-methyl-2-cephem-4-carboxylate-1,1-dioxide], the Ki came to 64 nM and the k₅/Ki result is listed as “k₅/Ki = 7,200 M⁻¹s⁻¹”.
